The values that follow come from ChEMBL document CHEMBL1201862, “PubChem BioAssay data set” (2004).

Some test systems named below: MDA-N; KM12; OVCAR-5; Malme-3M; MDA-MB-435; MCF7; BT-549; NCI/ADR-RES; SK-MEL-28; T47D; UO-31; ACHN; NCI-H522; COLO 205; HL-60; HT-29; HCT-116; RPMI-8226; UACC-257.
Assay in all cases: NCI tumour cell line growth inhibition, 48 h

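Protocol summary: plate cells (96-well), add compound at 5 concentrations, incubate 48 h, interpolate endpoints linearly. GI50 is the concentration that inhibits growth by half.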 Activity calls are given as the source filed them. No stated cut-off is given here; in the data, active = GI50 up to about 1.1 µM and inactive = higher.

With `CC1Oc2cc3c(-c4c(O)cc(O)c5c(O)c6c(cc45)OC(C)C(C)C6=O)c(O)cc(O)c3c(O)c2C(=O)C1C` (stereo not given), the GI50 was 0.359 µM (active) in the experiment with MDA-N; 0.0607 µM (active) in the experiment on KM12; 0.55 µM (active) in the experiment on OVCAR-5; 0.265 µM (active) with Malme-3M; 0.24 µM (active) in the experiment on MDA-MB-435; 0.147 µM (active) in the experiment with MCF7. The GI50 in the experiment with BT-549 was 0.0605 µM (active); in the experiment with NCI/ADR-RES, 0.162 µM (active); in the experiment with SK-MEL-28, 0.698 µM (active); in the experiment with T47D, 0.259 µM (active); with UO-31, 0.213 µM (active); with ACHN it was 0.183 µM (active). The GI50 in the experiment on NCI-H522 is 0.343 µM (active); with COLO 205, 0.17 µM (active); in the experiment on HL-60 it was 0.24 µM (active); in the experiment on HT-29 it was 0.0289 µM (active); in the experiment with HCT-116 it was 0.0378 µM (active); in the experiment on RPMI-8226, 0.0489 µM (active). Moreover, in the experiment with UACC-257, the GI50 is 0.289 µM (active).
In the case of `COc1ccccc1C1ON=C(c2ccc([N+](=O)[O-])cc2)N1C12CC3CC(CC(C3)C1)C2` (stereo not given), the GI50 is > 100 µM (inactive) in the experiment on MDA-N; > 100 µM (inactive) with KM12; 44.7 µM (inactive) with OVCAR-5; 61.5 µM (inactive) in the experiment on Malme-3M; 96.4 µM (inactive) in the experiment with MDA-MB-435; 47.9 µM (inactive) in the experiment on MCF7. The GI50 is > 100 µM (inactive) with BT-549; > 100 µM (inactive) in the experiment with NCI/ADR-RES; > 100 µM (inactive) with SK-MEL-28; 14 µM (inactive) with T47D; > 100 µM (inactive) with UO-31; > 100 µM (inactive) in the experiment with ACHN. For the same compound, the GI50 in the experiment on NCI-H522 was 73.8 µM (inactive); with COLO 205, > 100 µM (inactive); in the experiment on HL-60 it was 4.35 µM (inactive); with HT-29, 45.4 µM (inactive); with HCT-116 it was 47.5 µM (inactive); in the experiment on RPMI-8226 it was 20.8 µM (inactive). Moreover, the GI50 with UACC-257 is > 100 µM (inactive).
Consider `Nc1nc(O)nc2c1ncn2C1OC(CO)C(O)C1O` (stereo not given), for which the GI50 in the experiment with MDA-N is 46.5 µM (inactive); with KM12 it was > 100 µM (inactive); with OVCAR-5, > 100 µM (inactive); with Malme-3M, > 100 µM (inactive); in the experiment with MDA-MB-435, 57.5 µM (inactive); in the experiment with MCF7, 29 µM (inactive). For the same compound, the GI50 in the experiment on BT-549 is > 100 µM (inactive); in the experiment with NCI/ADR-RES it was 22.6 µM (inactive); with SK-MEL-28, > 100 µM (inactive); with T47D it was 25.1 µM (inactive); with UO-31, 49.9 µM (inactive); with ACHN, 78.9 µM (inactive). For the same compound, the GI50 in the experiment on NCI-H522 is > 100 µM (inactive); in the experiment with COLO 205, > 100 µM (inactive); in the experiment on HL-60, 22 µM (inactive); in the experiment on HT-29 it was > 100 µM (inactive); with HCT-116 it was 45 µM (inactive); in the experiment on RPMI-8226 it was 61.7 µM (inactive). In the experiment on UACC-257, the GI50 was > 100 µM (inactive).
With `Cc1ncn(-c2ccccc2O)c1C`, the GI50 in the experiment on MDA-N, in the experiment with KM12, with OVCAR-5, in the experiment with Malme-3M, with MDA-MB-435 and in the experiment on MCF7 was > 100 µM (inactive) throughout. The GI50 with BT-549, in the experiment on NCI/ADR-RES, with SK-MEL-28, in the experiment with T47D, with UO-31 and with ACHN was > 100 µM (inactive) in each case. For the same compound, the GI50 in the experiment on NCI-H522, in the experiment on COLO 205, in the experiment on HL-60, in the experiment with HT-29, in the experiment with HCT-116 and in the experiment with RPMI-8226 was > 100 µM (inactive) in each case. Further, the GI50 in the experiment with UACC-257 is 34.9 µM (inactive).
On to `Cc1nc(O)nc2nc3ccc(Cl)cc3c(NCCNCCO)c12`, for which the GI50 is 12.8 µM (inactive) in the experiment on MDA-N; 10.8 µM (inactive) in the experiment with KM12; 13.2 µM (inactive) in the experiment with OVCAR-5; 15.2 µM (inactive) in the experiment with Malme-3M; 13 µM (inactive) in the experiment on MDA-MB-435; 13.6 µM (inactive) in the experiment with MCF7. Also, the GI50 in the experiment with BT-549 was 16.7 µM (inactive); in the experiment on NCI/ADR-RES, 19.4 µM (inactive); in the experiment on SK-MEL-28, 17.5 µM (inactive); in the experiment with T47D, 10.3 µM (inactive); in the experiment on UO-31, 8.65 µM (inactive); with ACHN, 14.3 µM (inactive). The GI50 in the experiment with NCI-H522 was 3.21 µM (inactive); with COLO 205, 8.99 µM (inactive); with HL-60, 90.4 µM (inactive); in the experiment with HT-29 it was 10.3 µM (inactive); in the experiment on HCT-116, 5.85 µM (inactive); with RPMI-8226, 42.9 µM (inactive). For the same compound, the GI50 with UACC-257 is 12.4 µM (inactive).
Consider `COc1cc2c(c(O)c1OC)C(=O)[C@@H]1CCC(=O)N1C2c1ccccc1` (stereo not given in full), for which the GI50 in the experiment with MDA-N was > 100 µM (inactive); in the experiment on KM12, 67.5 µM (inactive); in the experiment on OVCAR-5, > 100 µM (inactive); in the experiment with Malme-3M it was > 100 µM (inactive); with MDA-MB-435 it was 90.6 µM (inactive); in the experiment on MCF7, > 100 µM (inactive). Besides, the GI50 with BT-549 is > 100 µM (inactive); in the experiment on NCI/ADR-RES, > 100 µM (inactive); with SK-MEL-28, > 100 µM (inactive); in the experiment on T47D, > 100 µM (inactive); with UO-31, 39.6 µM (inactive); in the experiment on ACHN, 85.7 µM (inactive). Also, the GI50 with NCI-H522 was 28.5 µM (inactive); in the experiment on COLO 205, > 100 µM (inactive); in the experiment with HL-60, 45.5 µM (inactive); in the experiment with HT-29 it was 87.7 µM (inactive); in the experiment on HCT-116, 66.8 µM (inactive); in the experiment with RPMI-8226 it was 45.7 µM (inactive). Also, the GI50 with UACC-257 is > 100 µM (inactive).
As for `CCOC(=O)c1c(NS(=O)(=O)c2ccc(Br)cc2)sc2c1CCCC2`, the GI50 was 13.8 µM (inactive) in the experiment on MDA-N; 6.65 µM (inactive) in the experiment with KM12; 6.71 µM (inactive) in the experiment on OVCAR-5; 12.9 µM (inactive) in the experiment on Malme-3M; 19.4 µM (inactive) in the experiment on MDA-MB-435; 10.3 µM (inactive) with MCF7. In addition, the GI50 in the experiment with BT-549 is 7.59 µM (inactive); in the experiment with NCI/ADR-RES it was 1.57 µM (inactive); in the experiment on SK-MEL-28, 15.8 µM (inactive); in the experiment with T47D it was 6.61 µM (inactive); in the experiment on UO-31 it was 3.51 µM (inactive); in the experiment with ACHN, 3.93 µM (inactive). For the same compound, the GI50 is 2.03 µM (inactive) in the experiment with NCI-H522; 13 µM (inactive) in the experiment with COLO 205; 6.18 µM (inactive) in the experiment on HL-60; 5.3 µM (inactive) in the experiment on HT-29; 7.52 µM (inactive) in the experiment on HCT-116; 4.6 µM (inactive) with RPMI-8226. Besides, in the experiment on UACC-257, the GI50 was 9.23 µM (inactive).
Regarding `Nc1ccc(Oc2ccc(C34CC5CC(C3)CC(c3ccc(Oc6ccc(N)c(O)c6)cc3)(C5)C4)cc2)cc1O`, the GI50 with MDA-N is 1.95 µM (inactive); in the experiment on KM12, 1.93 µM (inactive); in the experiment with OVCAR-5 it was 2.05 µM (inactive); in the experiment on Malme-3M, 1.85 µM (inactive); with MDA-MB-435, 1.89 µM (inactive); in the experiment on MCF7, 2.49 µM (inactive). Besides, the GI50 is 0.993 µM (active) in the experiment on BT-549; 2.32 µM (inactive) in the experiment on NCI/ADR-RES; 2.48 µM (inactive) with SK-MEL-28; 1.76 µM (inactive) in the experiment on T47D; 1.77 µM (inactive) with UO-31; 1.72 µM (inactive) in the experiment with ACHN. Also, the GI50 in the experiment on NCI-H522 was 1.54 µM (inactive); with COLO 205, 1.52 µM (inactive); in the experiment on HL-60, 2.12 µM (inactive); in the experiment on HT-29 it was 2.05 µM (inactive); in the experiment with HCT-116 it was 1.39 µM (inactive); in the experiment on RPMI-8226, 2.54 µM (inactive). Besides, the GI50 in the experiment with UACC-257 was 1.97 µM (inactive).
`CN(C)CCCNC(=O)c1cc(NS(=O)(=O)c2ccc3c(c2)C(=O)c2ccccc2C3=O)cn1C`: the GI50 is 28.1 µM (inactive) in the experiment with MDA-N; 17.8 µM (inactive) in the experiment on KM12; 35.6 µM (inactive) in the experiment on OVCAR-5; 5.5 µM (inactive) with Malme-3M; 25.4 µM (inactive) in the experiment with MDA-MB-435; 19.5 µM (inactive) in the experiment with MCF7. The GI50 with BT-549 is 24.5 µM (inactive); in the experiment on NCI/ADR-RES it was > 100 µM (inactive); in the experiment on SK-MEL-28 it was 27.1 µM (inactive); in the experiment with T47D, 35.2 µM (inactive); in the experiment on UO-31, 56.4 µM (inactive); with ACHN, 14.6 µM (inactive). Moreover, the GI50 with NCI-H522 was 22.6 µM (inactive); with COLO 205, 23.6 µM (inactive); with HL-60, 22.1 µM (inactive); in the experiment on HT-29, 28.8 µM (inactive); in the experiment with HCT-116, 51.3 µM (inactive); with RPMI-8226 it was 14.8 µM (inactive). For the same compound, the GI50 in the experiment with UACC-257 was 19.2 µM (inactive).
Turning to `Cn1c(=O)c2c(O)cc(N)nc2n(C)c1=O`, the GI50 in the experiment with MDA-N, in the experiment with KM12, with OVCAR-5, with Malme-3M, in the experiment on MDA-MB-435 and in the experiment on MCF7 was > 100 µM (inactive) throughout. Also, the GI50 with BT-549, in the experiment on NCI/ADR-RES, in the experiment on SK-MEL-28, in the experiment on T47D, in the experiment on UO-31 and with ACHN was > 100 µM (inactive) in each case. Further, the GI50 in the experiment on NCI-H522, in the experiment on COLO 205, with HL-60, in the experiment with HT-29, in the experiment on HCT-116 and in the experiment on RPMI-8226 was > 100 µM (inactive) each time. The GI50 in the experiment with UACC-257 was > 100 µM (inactive).
